Tests used:
[1] = system: rats; assay: hEPO expression in rats after intravenous administration; format: in vivo, rat; conditions: for hEPO expression: rat
Procedure: (§1) The expression of hEPO and cytokine induction in rats intravenously administered a nanoparticle composition at a dose of 2.0 mpk was measured at 6 h.
The expression of hEPO in rats intravenously administered a nanoparticle composition at a dose of 0.2 mpk or 2.0 mpk was measured at 6 hours. Table 16 summarize the ratio of hEPO expression levels using various nanoparticle compositions as compared to the hEPO expression level using MC3 formulation and the lipid levels in the liver measured 48 hours after administration, as described above. Tables 17 and 18 summarize the lipid levels in the liver and spleen measured 48 hours after administration of Compounds 28, 33, 53, and 54. Liver and spleen levels represent the average values calculated for 3 rats in each group. As is shown in Tables 17 and 18, less than 10% of Compounds 28, 33, 53, and 54 remained in the liver after 48 hours, while greater than 60% of MC3 remained.
(§2) Table 19 summarizes the hEPO expression, IP-10 induction, liver and spleen levels, and alanine aminotransferase (ALT) and aspartate aminotransferase (AST) measured upon intravenous administration of formulations including Compounds 48, 49, and 50 to rat at 0.2 and 2 mpk and hEPO mRNA. hEPO concentrations were measured 6 hours after administration, while cytokine induction and liver and spleen levels were measured 48 hours after administration. hEPO and IP-10 concentrations are presented in pg/ml, while liver levels are provided in ng/g. ALT and AST levels are presented in international units.
The expression of hEPO induced by intravenous administration to rats of nanoparticle compositions at various doses was measured at 2, 4, 6, 8, 24, and 48 hour time points. FIGS. 3-6 respectively summarize the hEPO expression measured upon intravenous administration of formulations including Compounds 26, 18, 25, and MC3 to rat at various doses. The lipid levels of Compound 26 in the liver after 48 hours were about 19%.
The expression of hEPO and lipid levels in the liver and spleen in rats intravenously administered a nanoparticle composition at a dose of 0.2 mpk was measured at various timepoints. Compounds 18 and 25 were selected for comparison with MC3. Lipids were formulated according to the standard MC3 formulation described above. Rats were administered intravenously a single 0.2 mpk dose and expression monitored at 0.25, 0.5, 1, 2, 4, 8, 24, and 48 hours after administration. […]

[2] = system: rats; assay: Cytokine induction (IP-10) in rats after intravenous administration; format: in vivo; conditions: rat, 6 hours after administration of hEPO nanoparticle compositions, 2.0 mpk
Procedure: as §1, §2

[3] = system: Cynomolgus monkeys; assay: Anti-HA (anti-hemagglutinin) antibody expression in Cynomolgus monkeys after intravenous infusion; format: in vivo; conditions: i.v. infusion 60 minutes
Procedure: Results of hEPO expression studies were validated using a standard MC3 formulation and a nanoparticle composition containing Compound 18 including an mRNA encoding an anti-hemagglutinin (anti-HA) antibody. Cynomolgus monkeys were administered a single dose of 0.1 mpk or 0.3 mpk of a nanoparticle composition containing Compound 18 (see Table 33; prepared according to Example 2) including an mRNA encoding anti-HA antibody via intravenous infusion for 60 minutes.

[4] = Particle size and polydispersity index of nanoparticle compositions (Zetasizer Nano ZS); format: physicochemical
How it was run: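 Particle size and PDI by Zetasizer Nano ZS dynamic light scattering in 1×PBS. Lipid nanoparticles carried mRNA (luciferase or hEPO) with ionizable lipid:DSPC:cholesterol:PEG-DMG at 50:10:38.5:1.5 mol %.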

[5] = system: rat; assay: Clinical chemistry and hematology in rat after intravenous administration; format: in vivo; parameters: unit not given here; conditions: 2 mpk, 48 h post dose
Procedure: Sample formulations of nanoparticle compositions including different lipids were administered intravenously to rat at a dose of 2 mpk. The expression of various clinical markers was evaluated at 48 h post dose and compared to that induced by administration of MC3 formulations or phosphate buffered saline (PBS).
as §2

[6] = hEPO mRNA, lipid:DSPC:Chol:PEG-DMG (50:10:38.5:1.5) (Table 10)
[7] = nanoparticle composition lipid:DSPC:cholesterol:PEG-DMG 50:10:38.5:1.5 mol %, mRNA encoding Luc or hEPO (Table 1A)

Compound	hEPO expression ([1]; i.v., 0.2 mpk, 0.25 h) [pg/mL]	hEPO expression ([1]; i.v., 0.2 mpk, 0.5 h) [pg/mL]	hEPO expression ([1]; i.v., 0.2 mpk, 1 h) [pg/mL]	hEPO expression ([1]; i.v., 0.2 mpk, 2 h) [pg/mL]	hEPO expression ([1]; i.v., 0.2 mpk, 4 h) [pg/mL]	hEPO expression ([1]; i.v., 0.2 mpk, 8 h) [pg/mL]	hEPO expression ([1]; i.v., 0.2 mpk, 24 h) [pg/mL]	hEPO expression ([1]; i.v., 0.2 mpk, 48 h) [pg/mL]	IP-10 [2] [pg/mL]	AUC ([3]; dose 0.1 mpk) [µg·h/mL]	AUC ([3]; dose 0.3 mpk) [µg·h/mL]	Size (nm) [4, 6] [nm]	Size (nm) [4, 7] [nm]	Alanine aminotransferase (Concentration) [5]	Aspartate aminotransferase (Concentration) [5]	Lymphocytes (Concentration) [5]	Monocytes (Concentration) [5]	Neutrophils (Concentration) [5]	further results
CCCCCCCCCOC(=O)CCCCCCCN(CCO)CCCCCCCC(=O)OC(CCCCCCCC)CCCCCCCC [Compound 18, Heptadecan-9-yl 8-((2-hydroxyethyl)(8-(nonyloxy)-8-oxooctyl)amino)octanoate]	20227	20743	194353	238107	514807	915320	412051	52361	517.3	354.3	1055	78.6	86.2	–	–	–	–	–	Diameter (nm) ([4]; mRNA encoding anti-HA antibody (Table 33)): 76.8 nm; PDI ([4]; nanoparticle composition 50:10:38.5:1.5 mol % (Table 1A)): 0.042
CCCCCCCCCCCOC(=O)CCCCCN(CCO)CCCCCCCC(=O)OC(CCCCCCCC)CCCCCCCC [Compound 25, Heptadecan-9-yl 8-((2-hydroxyethyl)(6-oxo-6-(undecyloxy)hexyl)amino)octanoate]	0	19553	434299	2042807	3176560	2631633	869374	103089	533.5	–	–	–	–	52	124.5	15924	2122	1998	–
CCCCCC=CCC=CCCCCCCCCC(CCCCCCCCC=CCC=CCCCCC)OC(=O)CCCN(C)C (stereo not drawn) [MC3, heptatriaconta-6,9,28,31-tetraen-19-yl 4-(dimethylamino)butanoate, reference compound]	0	42457	93720	524093	601307	1536833	703619	64687	688.3	77.05	235.7	73.7	79.7	339	325	19976	1429	4962.5	hEPO expression ([1]; 6 h, 2 mpk, intravenous): 1.33e+07 pg/mL; Lipid/MC3 hEPO conc. ratio 0.2 mpk ([1]; rats, intravenous, 0.2 mpk, 6 hours): 1; Lipid/MC3 hEPO conc. ratio 2 mpk ([1]; rats, intravenous, 2 mpk, 6 hours): 1; Size (nm) ([4]; formulated with hEPO mRNA (Table 1B)): 57.7 nm

Source: patent US12404232B2, “Compounds and compositions for intracellular delivery of therapeutic agents” (ModernaTX, Inc., priority 2015, dated 2025)
